Experimental data from patent US9458123B2, “Methods, pharmaceutical compositions, therapeutic systems, and compounds for treating B cell malignancies” (University of Rochester, priority 2012, dated 2016).

What was measured:
[1] = test system: IκBα phosphorylation by LPS in MEF cells; test: IκBα phosphorylation after LPS, western blot; type: cell-based, Mouse; conditions: LPS 1.5 μg/ml
Experimental: SUDHL-6, RAW264.7, and MEF cells were treated with NSC697923 or DMSO (control) for 1 hour before being stimulated with the PMA (100 ng/ml), RANKL (15 ng/ml), and LPS (1.5 μg/ml) for the indicated times. The levels of IκBα phosphorylation in the indicated samples were assessed by western blotting.
HEK293T cells were grown in DMEM supplemented with 10% fetal bovine serum (FBS). Diffuse large B cell lymphoma (DLBCL) cells SUDHL-6, OCI-Ly3, OCI-Ly7, OCLLy10, and HBL-1 were cultured as previously described (Davis et al., “Constitutive Nuclear Factor KappaB Activity is Required for Survival of Activated B Cell-Like Diffuse Large B Cell Lymphoma Cells,” J. Exp. Med. 194:1861-1874 (2001) and Kim et al., “Protein Kinase C-Associated Kinase is Required for NF-kappaB Signaling and Survival in Diffuse Large B-Cell Lymphoma Cells,” Blood 111:1644-1653 (2008), each of which is hereby incorporated by reference in its entirety). RAW264.7 cells were cultured in α-MEM medium supplemented with 10% FBS. Mouse embryo fibroblasts (“MEFs”) were prepared from day 14 embryos as previously described (Kamijo et al., “Tumor Suppression at the Mouse INK4a Locus Mediated by the Alternative Reading Frame Product p19ARF,” Cell 91:649-659 (1997), which is hereby incorporated by reference in its entirety). MEFs with less than four passages were used for the experiments described here. […]

[2] = test system: osteosarcoma U2OS cells; test: Cell viability, trypan blue exclusion assay; type: cell-based; conditions: 24 hours
Experimental: (§1) 1×10^6 cells were plated in 10 cm plates and cultured overnight. The indicated concentrations of NSC697923 were then added into culture medium for 24 hours before the cell viability was analyzed by trypan blue exclusion assay. Shown are the averages from three independent experiments.
(§2) Apoptosis was assayed using the 7AAD/annexin V apoptosis kit (BD Bioscience) as previously described (Kim et al., “Protein Kinase C-Associated Kinase is Required for NF-kappaB Signaling and Survival in Diffuse Large B-Cell Lymphoma Cells,” Blood 111:1644-1653 (2008), which is hereby incorporated by reference in its entirety). Analysis of the cell cycle distribution of the treated cells was carried out with propidium iodide (PI) and BrdU double staining as previously described (DeRan et al., “Assessing G1-to-S-Phase Progression after Genotoxic Stress,” Methods Mol. Biol. 782:221-230 (2011) and Su et al., “DNA Damage Induces Downregulation of Histone Gene Expression Through the G1 Checkpoint Pathway,” EMBO. J. 23:1133-1143 (2004), each of which is hereby incorporated by reference in its entirety).

[3] = test system: breast cancer MDA-MB231 cells; test: Cell viability, trypan blue exclusion assay; type: cell-based; conditions: 24 hours
Experimental: as §1, §2

[4] = biological target: T1, Ubc13 in OCI-Ly10 cells (Homo sapiens, UniProt P61088); test: Ubc13~Ub conjugate formation in DLBCL cells, western blot; type: cell-based; conditions: 3 hours
T1 construct: endogenous in cells; host or cells: OCI-Ly10
Experimental: OCI-Ly10 cells were treated with the indicated concentrations of NSC697923 for 3 hours. The levels of Ubc13˜Ub conjugate were analyzed by western blotting using a Ubc13-specific antibody as described in FIG. 4B. […] OCI-Ly10 cells were treated with DMSO (0.1%) or the indicated concentrations of NSC697923 for 3.5 hours. The levels of the indicated proteins were analyzed by western blotting with the respective antibodies.

[5] = test system: multiple myeloma cells; test: Growth of multiple myeloma cells, trypan blue exclusion assay; type: cell-based; conditions: 24 hours
Experimental: (§3) The indicated multiple myeloma cells were seeded at 300,000 cells/mL in 6-well plates and cultured in the presence of DMSO (0.2%, control) or various concentrations of NSC697923 for 24 hours. The live and dead cells were counted using the trypan blue exclusion assay. Shown are the means from 3 separate experiments. The average number of live cells in the control was set at 100.
as §3, with “It has been shown that multiple myeloma cells also depend on NF-kB signaling for survival. It was thus hypothesized that these cells may also sensitive to NSC697923 treatment. […] The indicated” for “The indicated”

T1 sequence (P61088 whole entry): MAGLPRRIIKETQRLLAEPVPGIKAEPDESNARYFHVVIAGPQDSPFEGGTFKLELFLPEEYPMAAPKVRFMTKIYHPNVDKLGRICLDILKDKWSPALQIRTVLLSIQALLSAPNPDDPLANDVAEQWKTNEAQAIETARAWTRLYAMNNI

Cc1ccc(S(=O)(=O)c2ccc([N+](=O)[O-])o2)cc1 [NSC697923, 2-nitro-5-tosylfuran] was tested, and the “IκBα phosphorylation by LPS” value [1] was “inhibited”, the “toxic effects on proliferation and survival compared to DLBCL cells” value [2] was “much less toxic effects” and the “toxic effects on proliferation and survival compared to DLBCL cells” value [3] was “much less toxic effects”. For the same compound, the “formation of the Ubc13~Ub conjugate in cells” value [4] was “inhibited formation of the Ubc13˜Ub conjugate” and the “growth of multiple myeloma cells” value [5] was “inhibits the growth of multiple myeloma cells”.
